Source: ChEMBL document CHEMBL5247595, “Synthesis, antitumor, and apoptosis-inducing activities of novel 5-arylidenethiazolidine-2,4-dione derivatives: Histone deacetylases inhibitory activity and molecular docking study” (Eur J Med Chem, 2022)

How the values were obtained:
[1] = test system: MCF7; test: cells; type: functional, cell-based; settings: Homo sapiens, MCF7, 48 h
Description: Cytotoxicity against human MCF7 cells assessed as inhibition of cell growth measured after 48 hrs by MTT assay

[2] = test system: HeLa; test: cells; type: functional, cell-based; settings: Homo sapiens, 48 h
Description: Cytotoxicity against human HeLa cells assessed as inhibition of cell growth measured after 48 hrs by MTT assay

[3] = test system: HepG2; test: cells; type: functional, cell-based; settings: Homo sapiens, HepG2, 48 h
Description: Cytotoxicity against human HepG2 cells assessed as inhibition of cell growth measured after 48 hrs by MTT assay

[4] = molecular target: T1, Histone deacetylase 8 (Homo sapiens, UniProt Q9BY41); test: Inhibition of HDAC8 (unknown origin) by ELISA assay
T1 sequence (Q9BY41 whole entry): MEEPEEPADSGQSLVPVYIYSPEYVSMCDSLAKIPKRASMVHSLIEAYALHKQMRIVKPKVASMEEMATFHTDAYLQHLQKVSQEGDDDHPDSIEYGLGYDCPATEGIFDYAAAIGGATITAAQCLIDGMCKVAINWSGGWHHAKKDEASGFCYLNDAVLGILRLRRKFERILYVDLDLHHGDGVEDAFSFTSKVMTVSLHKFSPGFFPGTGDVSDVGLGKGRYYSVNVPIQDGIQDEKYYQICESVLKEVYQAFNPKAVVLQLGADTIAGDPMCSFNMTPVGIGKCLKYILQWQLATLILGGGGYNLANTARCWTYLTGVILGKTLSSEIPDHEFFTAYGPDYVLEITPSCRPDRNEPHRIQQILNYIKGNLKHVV

[5] = test system: HCT-116; test: cells; type: functional, cell-based; settings: Homo sapiens, HCT-116, 48 h
Description: Cytotoxicity against human HCT-116 cells assessed as inhibition of cell growth measured after 48 hrs by MTT assay

[6] = molecular target: Histone deacetylase 1 (Homo sapiens, UniProt Q13547); test: Inhibition of HDAC1 (unknown origin) by ELISA assay
Sequence of Histone deacetylase 1 (Q13547 whole entry): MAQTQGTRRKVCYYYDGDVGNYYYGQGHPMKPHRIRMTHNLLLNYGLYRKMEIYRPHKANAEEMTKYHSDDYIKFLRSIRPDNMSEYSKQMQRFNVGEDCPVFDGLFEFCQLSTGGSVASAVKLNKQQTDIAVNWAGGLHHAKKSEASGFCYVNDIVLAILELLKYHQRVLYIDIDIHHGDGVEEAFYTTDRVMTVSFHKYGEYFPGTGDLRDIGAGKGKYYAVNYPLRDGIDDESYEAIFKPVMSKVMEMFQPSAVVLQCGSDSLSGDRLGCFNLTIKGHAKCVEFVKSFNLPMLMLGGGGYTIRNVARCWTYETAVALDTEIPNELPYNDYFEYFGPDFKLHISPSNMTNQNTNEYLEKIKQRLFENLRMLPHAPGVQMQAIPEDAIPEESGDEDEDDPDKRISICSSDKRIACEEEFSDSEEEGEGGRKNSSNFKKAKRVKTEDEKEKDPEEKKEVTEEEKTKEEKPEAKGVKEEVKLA

[7] = molecular target: T2, Protein deacetylase HDAC6 (Homo sapiens, UniProt Q9UBN7); test: Inhibition of HDAC6 (unknown origin) by ELISA assay
T2 sequence (Q9UBN7 whole entry): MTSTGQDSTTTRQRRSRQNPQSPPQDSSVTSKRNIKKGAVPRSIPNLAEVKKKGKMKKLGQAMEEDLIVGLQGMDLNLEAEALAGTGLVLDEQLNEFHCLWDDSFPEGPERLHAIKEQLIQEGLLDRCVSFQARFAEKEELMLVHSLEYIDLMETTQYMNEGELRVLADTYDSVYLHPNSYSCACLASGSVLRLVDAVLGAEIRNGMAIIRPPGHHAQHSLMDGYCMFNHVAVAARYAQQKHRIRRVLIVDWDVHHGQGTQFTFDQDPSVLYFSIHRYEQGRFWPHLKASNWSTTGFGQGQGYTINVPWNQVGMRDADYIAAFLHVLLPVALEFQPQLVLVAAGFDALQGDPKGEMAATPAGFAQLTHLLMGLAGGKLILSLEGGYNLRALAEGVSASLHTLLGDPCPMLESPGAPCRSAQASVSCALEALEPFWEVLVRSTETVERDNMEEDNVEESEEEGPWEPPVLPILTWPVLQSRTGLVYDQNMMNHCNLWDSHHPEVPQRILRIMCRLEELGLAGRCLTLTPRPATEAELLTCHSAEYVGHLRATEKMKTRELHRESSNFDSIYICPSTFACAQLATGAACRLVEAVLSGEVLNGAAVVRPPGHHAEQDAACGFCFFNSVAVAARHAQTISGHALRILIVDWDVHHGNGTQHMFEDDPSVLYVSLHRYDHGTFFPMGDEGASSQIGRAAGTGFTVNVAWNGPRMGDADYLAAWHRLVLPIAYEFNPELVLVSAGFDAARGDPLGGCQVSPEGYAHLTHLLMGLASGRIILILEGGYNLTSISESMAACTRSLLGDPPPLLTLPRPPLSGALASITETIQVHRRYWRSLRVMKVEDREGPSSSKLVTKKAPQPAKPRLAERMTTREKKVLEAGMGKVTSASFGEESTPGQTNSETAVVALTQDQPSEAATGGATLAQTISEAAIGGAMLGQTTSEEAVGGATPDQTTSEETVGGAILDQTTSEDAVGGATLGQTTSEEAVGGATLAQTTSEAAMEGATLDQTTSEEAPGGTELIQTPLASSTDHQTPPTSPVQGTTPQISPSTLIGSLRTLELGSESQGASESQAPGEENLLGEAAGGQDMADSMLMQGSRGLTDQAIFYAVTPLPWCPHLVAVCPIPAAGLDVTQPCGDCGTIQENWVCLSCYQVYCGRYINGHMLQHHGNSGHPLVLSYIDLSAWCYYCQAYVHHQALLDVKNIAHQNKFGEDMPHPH

[8] = molecular target: Histone deacetylase 2 (Homo sapiens, UniProt Q92769); test: Inhibition of HDAC2 (unknown origin) by ELISA assay
Sequence of Histone deacetylase 2 (Q92769 whole entry): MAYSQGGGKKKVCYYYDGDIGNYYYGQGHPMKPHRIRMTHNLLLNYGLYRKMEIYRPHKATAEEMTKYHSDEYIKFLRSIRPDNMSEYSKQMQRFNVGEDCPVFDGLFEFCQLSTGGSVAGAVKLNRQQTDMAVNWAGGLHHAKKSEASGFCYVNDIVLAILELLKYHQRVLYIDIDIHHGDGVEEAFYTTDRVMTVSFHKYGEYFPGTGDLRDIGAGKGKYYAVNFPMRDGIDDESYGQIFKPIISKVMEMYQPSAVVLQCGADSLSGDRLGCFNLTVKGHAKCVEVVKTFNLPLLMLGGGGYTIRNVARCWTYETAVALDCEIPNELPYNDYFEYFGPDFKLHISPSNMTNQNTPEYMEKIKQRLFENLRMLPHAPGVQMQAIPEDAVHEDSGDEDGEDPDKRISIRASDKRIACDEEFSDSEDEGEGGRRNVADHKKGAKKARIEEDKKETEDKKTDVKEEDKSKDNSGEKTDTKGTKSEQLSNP

[9] = test system: PC-3; test: Cytotoxicity against human PC-3 cells assessed as inhibition of cell growth measured after 48 hrs by MTT assay; type: functional, cell-based; settings: PC-3, 48 h
[10] = in vitro; settings: human, WI-38 cells
Description: Cytotoxicity against human WI-38 cells assessed as inhibition of cell growth measured after 48 hrs by MTT assay

Compound	IC50 [1]	IC50 [2]	IC50 [3]	IC50 [4]	IC50 [5]	IC50 [6]	IC50 [7]	IC50 [8]	IC50 at 48 h [10]	IC50 [9]
Cc1ccc(/C=C2\SC(=O)N(CC(=O)Nc3c(C)n(C)n(-c4ccccc4)c3=O)C2=O)cc1	65.5 µM	53.1 µM	57.6 µM		47.6 µM				83.7 µM	45.3 µM
Cc1c(NC(=O)CN2C(=O)S/C(=C\c3ccc(Cl)cc3)C2=O)c(=O)n(-c2ccccc2)n1C	42.6 µM	19.9 µM	31.9 µM		23 µM				54.4 µM	28.9 µM
O=C(CCCCCCC(=O)Nc1ccccc1)NO [VORINOSTAT]										3.6 µM

Continued by falling IC50 [1], values first:

IC50 [1]	IC50 [2]	IC50 [3]	IC50 [4]	IC50 [5]	IC50 [6]	IC50 [7]	IC50 [8]	IC50 at 48 h [10]	Compound	IC50 [9]
24.1 µM	9.41 µM	19.2 µM	1.09 µM	7.84 µM	0.458 µM	1.63 µM	3.85 µM	66.7 µM	Cc1c(NC(=O)CN2C(=O)S/C(=C\c3ccc(Br)cc3)C2=O)c(=O)n(-c2ccccc2)n1C	17.1 µM
18.6 µM	37.7 µM	14 µM	0.245 µM	44.8 µM	0.16 µM	0.144 µM	0.526 µM	76.4 µM	Cc1c(NC(=O)NCCN2C(=O)S/C(=C\c3ccc([N+](=O)[O-])cc3)C2=O)c(=O)n(-c2ccccc2)n1C	69.3 µM
7.58 µM	15.8 µM	10.8 µM	0.344 µM	12.5 µM	0.349 µM	0.475 µM	1.74 µM	51.5 µM	COc1cc(/C=C2\SC(=O)N(CCNC(=O)Nc3c(C)n(C)n(-c4ccccc4)c3=O)C2=O)cc(OC)c1OC	35.4 µM
